# Assay results published in paper PMC10712727, “Safety, Tolerability, and Pharmacokinetics of Senaparib, a Novel PARP1/2 Inhibitor, in Chinese Patients With Advanced Solid Tumors: A Phase I Trial” (The Oncologist, 2023).
# Tested on: patients with advanced solid tumors
# Test: Safety: treatment-emergent and senaparib-related adverse events graded per NCI CTCAE v4.03
# Type: in vivo
# Conditions: TEAE
# Method: This phase I, open-label, multicenter, dose-escalation, and dose-expansion study was conducted at three national clinical institutions in China. […] At baseline, all patients enrolled in the dose-escalation phase had to have at least one evaluable lesion, and those in the dose-expansion period had to have at least one measurable lesion, according to Response Evaluation Criteria in Solid Tumors version 1.1 (RECIST v1.1).[16] Entry to the dose-expansion cohort required the presence of a BRCA mutation, with the exception of patients with ovarian carcinoma, fallopian tube carcinoma, and primary peritoneal carcinoma. Full study eligibility criteria are provided in Supplementary Table S1.
# Dose escalation was conducted using a modified Fibonacci 3 + 3 method (Supplementary Fig. S1).[17] Patients were administered oral senaparib from a planned starting dose of 2 mg once daily (QD), with preliminary dose escalation to 120 mg via nine dose groups, in order of their entry into the study. At a given dose level, each patient received a single dose of senaparib followed by a 7-day washout period. They then entered a continuous dosing period to confirm the safety and PK profile, in which they received senaparib QD from day 1 to day 21 of each 3-week cycle. Progression to the next higher dose required approval from the Data Safety Monitoring Committee (DSMC) upon review of the safety and PK data of the previous dose. A 50-mg twice-daily (BID) dosing group was added (planned enrollment, n = 6 patients) based on a DSMC review of the safety, PK, and efficacy analysis of the completed QD dose groups in the phase I clinical trial of senaparib dose escalation in Australia (NCT03507543), which commenced prior to the start of this trial.
# The dose-expansion period included 3 populations: dose groups in which at least one patient achieved complete response (CR) or partial response (PR) per RECIST v1.1[16] and 1 dose group higher (evaluated for safety), as well as the dose group at the maximum tolerated dose (MTD)/recommended phase II dose (RP2D). Each of these groups included those patients in the respective dose-escalation group plus a planned additional 10 patients (approximately 20 patients in the MTD/RP2D group) with BRCA^mut+ solid tumors (ovarian, breast, or prostate cancer were preferred, and ovarian cancer could be BRCA wild type). Patients received senaparib monotherapy orally QD or BID (50-mg dose only) over each 3-week cycle until disease progression or unacceptable toxicity.
# DLTs were predefined toxicities (Supplementary Table S2) recorded over the 7 days following the single-dose administration of senaparib and during the first treatment cycle (day 1-day 21) for each dose group in the dose-escalation period only. The MTD was defined as the maximum dose at which ≤1/6 patients experienced a DLT. Senaparib PK parameters were derived from blood samples collected from patients after the single administration, and at regular intervals during the first cycle of the dose-escalation and dose-expansion periods. Plasma concentrations of senaparib were determined using high-performance liquid chromatography-tandem mass spectrometry. Tumor response was assessed every 6 weeks per RECIST v1.1,[16] recording objective response rate (ORR), disease control rate (DCR), duration of response (DOR), and progression-free survival (PFS) by dose level for all patients and for those harboring BRCA^mut+ tumors.
smiles,measurement,setting,value
O=C(c1cc(Cn2c(=O)[nH]c(=O)c3c(F)cccc32)ccc1F)N1CCN(c2ncccn2)CC1 [Senaparib],"Vomiting, Gr≥3",10 mg QD n = 3,0 n (%)
same,"WBC decreased, All",10 mg QD n = 3,1 (33.3) n (%)
same,"WBC decreased, Gr≥3",10 mg QD n = 3,0 n (%)
same,"ALT increased, All",20 mg QD n = 5,0 n (%)
same,"ALT increased, Gr≥3",20 mg QD n = 5,0 n (%)
same,"AST increased, All",20 mg QD n = 5,0 n (%)
same,"AST increased, Gr≥3",20 mg QD n = 5,0 n (%)
same,"Abdominal distension, All",20 mg QD n = 5,1 (20.0) n (%)
same,"Abdominal distension, Gr≥3",20 mg QD n = 5,0 n (%)
same,"Anemia (incl. hemoglobin decreased), All",20 mg QD n = 5,1 (20.0) n (%)
same,"Anemia (incl. hemoglobin decreased), Gr≥3",20 mg QD n = 5,1 (20.0) n (%)
same,"Appetite decreased, All",20 mg QD n = 5,1 (20.0) n (%)
same,"Appetite decreased, Gr≥3",20 mg QD n = 5,0 n (%)
same,"Asthenia, All",20 mg QD n = 5,1 (20.0) n (%)
same,"Asthenia, Gr≥3",20 mg QD n = 5,0 n (%)
same,"Blood bilirubin increased, All",20 mg QD n = 5,0 n (%)
same,"Blood bilirubin increased, Gr≥3",20 mg QD n = 5,0 n (%)
same,"Blood creatinine increased, All",20 mg QD n = 5,1 (20.0) n (%)
same,"Blood creatinine increased, Gr≥3",20 mg QD n = 5,0 n (%)
same,"Hypokalemia, All",20 mg QD n = 5,1 (20.0) n (%)
same,"Hypokalemia, Gr≥3",20 mg QD n = 5,0 n (%)
same,"Hyponatremia, All",20 mg QD n = 5,0 n (%)
same,"Hyponatremia, Gr≥3",20 mg QD n = 5,0 n (%)
same,"Nausea, All",20 mg QD n = 5,1 (20.0) n (%)
same,"Nausea, Gr≥3",20 mg QD n = 5,0 n (%)
same,"Neutrophil count decreased, All",20 mg QD n = 5,0 n (%)
same,"Neutrophil count decreased, Gr≥3",20 mg QD n = 5,0 n (%)
same,"Pain in extremity, All",20 mg QD n = 5,1 (20.0) n (%)
same,"Pain in extremity, Gr≥3",20 mg QD n = 5,1 (20.0) n (%)
same,"Platelet count decreased, All",20 mg QD n = 5,1 (20.0) n (%)
same,"Platelet count decreased, Gr≥3",20 mg QD n = 5,0 n (%)
same,"Protein in urine, All",20 mg QD n = 5,1 (20.0) n (%)
same,"Protein in urine, Gr≥3",20 mg QD n = 5,0 n (%)
same,"Vomiting, All",20 mg QD n = 5,0 n (%)
same,"Vomiting, Gr≥3",20 mg QD n = 5,0 n (%)
same,"WBC decreased, All",20 mg QD n = 5,1 (20.0) n (%)
same,"WBC decreased, Gr≥3",20 mg QD n = 5,0 n (%)
same,"ALT increased, All",40 mg QD n = 3,0 n (%)
same,"ALT increased, Gr≥3",40 mg QD n = 3,0 n (%)
same,"AST increased, All",40 mg QD n = 3,0 n (%)
same,"AST increased, Gr≥3",40 mg QD n = 3,0 n (%)
same,"Abdominal distension, All",40 mg QD n = 3,0 n (%)
same,"Abdominal distension, Gr≥3",40 mg QD n = 3,0 n (%)
same,"Anemia (incl. hemoglobin decreased), All",40 mg QD n = 3,1 (33.3) n (%)
same,"Anemia (incl. hemoglobin decreased), Gr≥3",40 mg QD n = 3,0 n (%)
same,"Appetite decreased, All",40 mg QD n = 3,0 n (%)
same,"Appetite decreased, Gr≥3",40 mg QD n = 3,0 n (%)
same,"Asthenia, All",40 mg QD n = 3,1 (33.3) n (%)
same,"Asthenia, Gr≥3",40 mg QD n = 3,0 n (%)
same,"Blood bilirubin increased, All",40 mg QD n = 3,0 n (%)
same,"Blood bilirubin increased, Gr≥3",40 mg QD n = 3,0 n (%)
same,"Blood creatinine increased, All",40 mg QD n = 3,1 (33.3) n (%)
same,"Blood creatinine increased, Gr≥3",40 mg QD n = 3,0 n (%)
same,"Hypokalemia, All",40 mg QD n = 3,0 n (%)
same,"Hypokalemia, Gr≥3",40 mg QD n = 3,0 n (%)
same,"Hyponatremia, All",40 mg QD n = 3,0 n (%)
same,"Hyponatremia, Gr≥3",40 mg QD n = 3,0 n (%)
same,"Nausea, All",40 mg QD n = 3,0 n (%)
same,"Nausea, Gr≥3",40 mg QD n = 3,0 n (%)
same,"Neutrophil count decreased, All",40 mg QD n = 3,0 n (%)
same,"Neutrophil count decreased, Gr≥3",40 mg QD n = 3,0 n (%)
same,"Pain in extremity, All",40 mg QD n = 3,0 n (%)
same,"Pain in extremity, Gr≥3",40 mg QD n = 3,0 n (%)
same,"Platelet count decreased, All",40 mg QD n = 3,0 n (%)
same,"Platelet count decreased, Gr≥3",40 mg QD n = 3,0 n (%)
same,"Protein in urine, All",40 mg QD n = 3,0 n (%)
same,"Protein in urine, Gr≥3",40 mg QD n = 3,0 n (%)
same,"Vomiting, All",40 mg QD n = 3,0 n (%)
same,"Vomiting, Gr≥3",40 mg QD n = 3,0 n (%)
same,"WBC decreased, All",40 mg QD n = 3,0 n (%)
same,"WBC decreased, Gr≥3",40 mg QD n = 3,0 n (%)
same,"ALT increased, All",50 mg BID n = 4,1 (25.0) n (%)
same,"ALT increased, Gr≥3",50 mg BID n = 4,0 n (%)
same,"AST increased, All",50 mg BID n = 4,1 (25.0) n (%)
same,"AST increased, Gr≥3",50 mg BID n = 4,0 n (%)
same,"Abdominal distension, All",50 mg BID n = 4,0 n (%)
same,"Abdominal distension, Gr≥3",50 mg BID n = 4,0 n (%)
same,"Anemia (incl. hemoglobin decreased), All",50 mg BID n = 4,3 (75.0) n (%)
same,"Anemia (incl. hemoglobin decreased), Gr≥3",50 mg BID n = 4,2 (50.0) n (%)
same,"Appetite decreased, All",50 mg BID n = 4,0 n (%)
same,"Appetite decreased, Gr≥3",50 mg BID n = 4,0 n (%)
same,"Asthenia, All",50 mg BID n = 4,1 (25.0) n (%)
same,"Asthenia, Gr≥3",50 mg BID n = 4,0 n (%)
same,"Blood bilirubin increased, All",50 mg BID n = 4,0 n (%)
same,"Blood bilirubin increased, Gr≥3",50 mg BID n = 4,0 n (%)
same,"Blood creatinine increased, All",50 mg BID n = 4,0 n (%)
same,"Blood creatinine increased, Gr≥3",50 mg BID n = 4,0 n (%)
same,"Hypokalemia, All",50 mg BID n = 4,0 n (%)
same,"Hypokalemia, Gr≥3",50 mg BID n = 4,0 n (%)
same,"Hyponatremia, All",50 mg BID n = 4,3 (75.0) n (%)
same,"Hyponatremia, Gr≥3",50 mg BID n = 4,1 (25.0) n (%)
same,"Nausea, All",50 mg BID n = 4,2 (50.0) n (%)
same,"Nausea, Gr≥3",50 mg BID n = 4,0 n (%)
same,"Neutrophil count decreased, All",50 mg BID n = 4,0 n (%)
same,"Neutrophil count decreased, Gr≥3",50 mg BID n = 4,0 n (%)
same,"Pain in extremity, All",50 mg BID n = 4,0 n (%)
same,"Pain in extremity, Gr≥3",50 mg BID n = 4,0 n (%)
same,"Platelet count decreased, All",50 mg BID n = 4,1 (25.0) n (%)
same,"Platelet count decreased, Gr≥3",50 mg BID n = 4,0 n (%)
same,"Protein in urine, All",50 mg BID n = 4,0 n (%)
same,"Protein in urine, Gr≥3",50 mg BID n = 4,0 n (%)
same,"Vomiting, All",50 mg BID n = 4,2 (50.0) n (%)
same,"Vomiting, Gr≥3",50 mg BID n = 4,0 n (%)
same,"WBC decreased, All",50 mg BID n = 4,2 (50.0) n (%)
same,"WBC decreased, Gr≥3",50 mg BID n = 4,0 n (%)
same,"ALT increased, All",60 mg QD n = 5,0 n (%)
same,"ALT increased, Gr≥3",60 mg QD n = 5,0 n (%)
same,"AST increased, All",60 mg QD n = 5,0 n (%)
same,"AST increased, Gr≥3",60 mg QD n = 5,0 n (%)
same,"Abdominal distension, All",60 mg QD n = 5,2 (40.0) n (%)
same,"Abdominal distension, Gr≥3",60 mg QD n = 5,0 n (%)
same,"Anemia (incl. hemoglobin decreased), All",60 mg QD n = 5,0 n (%)
same,"Anemia (incl. hemoglobin decreased), Gr≥3",60 mg QD n = 5,0 n (%)
same,"Appetite decreased, All",60 mg QD n = 5,1 (20.0) n (%)
same,"Appetite decreased, Gr≥3",60 mg QD n = 5,0 n (%)
same,"Asthenia, All",60 mg QD n = 5,1 (20.0) n (%)
